From publication PMC6323127 (Saudi Pharmaceutical Journal : SPJ, 2018)
Values after ≈ are worked out from the molar mass of the structure shown.

How the values were obtained:
CYP1A1/2 = settings: in vitro; ref Ayrton et al., 1987; cited from earlier work
CYP1A2 [1] = target: T1, CYP1A2 (Homo sapiens, UniProt P05177); settings: for relative potency (AEM IC50)/(other anthraquinone IC50), CYP1A2-mediated caffeine demethylation: AEM as reference chemical; for inhibitor strength toward CYP1A2 activity (in words): human liver microsomes
T1 sequence (P05177 1-516): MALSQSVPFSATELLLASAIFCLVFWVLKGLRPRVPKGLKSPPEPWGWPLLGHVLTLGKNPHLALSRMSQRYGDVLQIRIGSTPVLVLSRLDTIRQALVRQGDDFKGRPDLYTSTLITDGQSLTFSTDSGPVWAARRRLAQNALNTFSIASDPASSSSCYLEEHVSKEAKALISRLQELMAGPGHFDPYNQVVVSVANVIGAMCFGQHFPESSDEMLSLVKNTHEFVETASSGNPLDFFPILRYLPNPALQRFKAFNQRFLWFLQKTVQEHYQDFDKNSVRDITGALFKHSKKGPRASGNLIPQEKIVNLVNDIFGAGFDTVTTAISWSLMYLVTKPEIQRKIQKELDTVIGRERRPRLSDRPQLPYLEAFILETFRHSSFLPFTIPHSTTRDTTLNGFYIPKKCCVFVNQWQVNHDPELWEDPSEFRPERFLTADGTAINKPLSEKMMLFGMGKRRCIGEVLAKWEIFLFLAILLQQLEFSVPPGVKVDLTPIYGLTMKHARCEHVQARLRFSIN

CYP3A4 [2] = target: T2, CYP3A4 (Homo sapiens, UniProt P08684); settings: for relative potency (AEM IC50)/(other anthraquinone IC50), CYP3A4-mediated erythromycin demethylation: AEM as reference chemical; for inhibitor strength toward CYP3A4 activity (in words): human liver microsomes
T2 sequence (P08684 whole entry): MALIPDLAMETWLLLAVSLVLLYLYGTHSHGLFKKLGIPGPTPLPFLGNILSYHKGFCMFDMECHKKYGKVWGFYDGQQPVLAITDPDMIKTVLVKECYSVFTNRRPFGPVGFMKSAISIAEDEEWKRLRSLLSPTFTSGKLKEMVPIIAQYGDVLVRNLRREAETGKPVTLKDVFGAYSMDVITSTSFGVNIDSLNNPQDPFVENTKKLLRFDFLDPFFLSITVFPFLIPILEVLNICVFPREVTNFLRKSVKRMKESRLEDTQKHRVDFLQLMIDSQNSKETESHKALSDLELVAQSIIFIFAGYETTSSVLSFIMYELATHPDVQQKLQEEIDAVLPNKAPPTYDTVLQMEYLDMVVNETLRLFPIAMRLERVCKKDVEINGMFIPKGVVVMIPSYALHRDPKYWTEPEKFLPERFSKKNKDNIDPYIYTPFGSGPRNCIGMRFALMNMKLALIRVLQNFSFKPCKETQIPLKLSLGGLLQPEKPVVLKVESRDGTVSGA

CYP1A2 [3] = target: T1, CYP1A2; assay: biochemical
CYP3A4 [4] = target: T2, CYP3A4; assay: biochemical
CYP1A2 [5] = target: T1, CYP1A2; assay: in vitro; settings: microsomes, pH 7.4

| SMILES | relative potency (AEM IC50)/(other anthraquinone IC50), CYP1A2-mediated caffeine demethylation (CYP1A2 [1]) | slope of CYP1A2 inhibition-log concentration (or dilution volume) curve (CYP1A2 [1]; Fig. 5) | inhibitor strength toward CYP1A2 activity (in words) (CYP1A2 [1]) | relative potency (AEM IC50)/(other anthraquinone IC50), CYP3A4-mediated erythromycin demethylation (CYP3A4 [2]) | inhibitor strength toward CYP3A4 activity (in words) (CYP3A4 [2]) | IC50 (CYP1A2 [3]) | IC50 (CYP3A4 [4]) | IC50 (CYP1A2 [5]) | inhibitor strength toward rat liver microsomal CYP1A1/2 activity (in words) (CYP1A1/2) |
| --- | --- | --- | --- | --- | --- | --- | --- | --- | --- |
| O=C1c2ccc(O)cc2C(=O)c2ccc(O)cc21 [2,6-dihydroxyanthraquinone] |  |  |  |  |  |  |  |  | potent inhibitor |
| O=C1c2cccc(O)c2C(=O)c2c(O)cc(CO)cc21 [Aloe-emodin] | 1.00 unitless | 1.74 | potent inhibitors | 1.00 unitless | moderate inhibitors | 1.55 µM | 8.29 µM |  |  |
| Cc1cc(O)c2c(c1)C(=O)c1cccc(O)c1C2=O [Chrysophanol] |  |  | potent inhibitors |  |  | 1.73 µM |  |  |  |
| Cc1cc(O)c2c(c1)C(=O)c1cc(O)cc(O)c1C2=O [Emodin] | 0.02 unitless |  | weak CYP1A2 inhibitor | 0.55 unitless | moderate inhibitors | 67 µM | 15.2 µM |  |  |
| COc1cc(O)c2c(c1)C(=O)c1cc(C)cc(O)c1C2=O [Physcion] | 0.98 unitless |  | potent inhibitors | < 0.04 unitless |  |  | > 220 µM | 0.43 µg/mL (≈ 1.51 µM) |  |

Further lines, with some results ahead:

| relative potency (AEM IC50)/(other anthraquinone IC50), CYP1A2-mediated caffeine demethylation (CYP1A2 [1]) | slope of CYP1A2 inhibition-log concentration (or dilution volume) curve (CYP1A2 [1]; Fig. 5) | inhibitor strength toward CYP1A2 activity (in words) (CYP1A2 [1]) | relative potency (AEM IC50)/(other anthraquinone IC50), CYP3A4-mediated erythromycin demethylation (CYP3A4 [2]) | inhibitor strength toward CYP3A4 activity (in words) (CYP3A4 [2]) | IC50 (CYP1A2 [3]) | IC50 (CYP3A4 [4]) | IC50 (CYP1A2 [5]) | SMILES | inhibitor strength toward rat liver microsomal CYP1A1/2 activity (in words) (CYP1A1/2) |
| --- | --- | --- | --- | --- | --- | --- | --- | --- | --- |
| 0.68 unitless |  | potent inhibitors | 0.08 unitless | weak inhibitors | 2.18 µM | 97.6 µM |  | O=C(O)c1cc(O)c2c(c1)C(=O)c1cccc(O)c1C2=O [Rhein] |  |
|  |  | weak inhibitor |  | weak inhibitor | > 155 µM |  |  | O=C(O)c1cc(O)c2c(c1)[C@H]([C@H]1c3cc(C(=O)O)cc(O)c3C(=O)c3c(O[C@@H]4O[C@H](CO)[C@@H](O)[C@H](O)[C@H]4O)cccc31)c1cccc(O[C@@H]3O[C@H](CO)[C@@H](O)[C@H](O)[C@H]3O)c1C2=O [Sennoside A] |  |
|  |  | moderate inhibitor |  | moderate inhibitor | 33.1 µM |  |  | O=C(O)c1cc(O)c2c(c1)[C@@H]([C@H]1c3cc(C(=O)O)cc(O)c3C(=O)c3c(O[C@@H]4O[C@H](CO)[C@@H](O)[C@H](O)[C@H]4O)cccc31)c1cccc(O[C@@H]3O[C@H](CO)[C@@H](O)[C@H](O)[C@H]3O)c1C2=O [Sennoside B] |  |
